Tested on: lamin b1 (LMNB1) gene expression
Assay: lamin B1 (LMNB1) gene expression assay (qPCR) in skin equivalents, with TNF-α to simulate photoaged skin
Assay type: cell-based, human
Protocol: The effects of IR light, hexyl resorcinol (HR), and combinations thereof on lamin B1 gene expression in the presence of TNF-α was tested as follows. TNF-α is known to play a primary role in the inflammation process upon ultraviolet (UV) irradiation and is stimulated by UVB.
Three human full-thickness skin equivalents (MatTek, Ashland, Mass.) were used for each treatment. The skin equivalents were treated with one of the following: (i) 100 ng/ml TNF-α in a medium (1× phenol-red free Hank's buffered saline solution (HBSS), (ii) a placebo formulation, (iii) a hexyl resorcinol formulation containing 0.5 weight percent hexyl resorcinol (HR) in the placebo formulation, (iv) infrared (IR) light (wavelength 830 nm) at 0.5 mW/cm^2 for 10 min (i.e. fluence at 0.3 J/cm^2), or (iv) combinations of these. TNF-α was used to simulate photoaged skin.
The placebo formulation contained the ingredients in Table 1. The hexyl resorcinol formulation contained the same ingredients plus 0.5 wt % hexyl resorcinol.
For the combination treatments, the formulations were first topically applied to the skin equivalents and left to stand for two hours. Next, the skin equivalents were irradiated with the IR light. Then the skin equivalents were incubated with or without 100 ng/ml TNF-α in the phenol-red-free medium for 24 hours.
Afterwards, the skin equivalents were collected in RNAlater solution (ThermoFisher Scientific, Bridgewater, N.J., USA) for RNA purification. The total RNAs were purified using a Qiagen RNeasy kit (Valencia, Calif., USA) following the manufacturer's instructions. RNA concentration was assessed using a Nanodrop 2000 spectrophotometer (ThermoFisher Scientific, Bridgewater, N.J., USA). Complementary DNA (cDNA) was performed using a High Capacity cDNA kit (ThermoFisher Scientific, Bridgewater, N.J., USA). TaqMan® gene expression assays for lamin b1 (LMNB1) and TATA-Box Binding Protein (TBP) and TaqMan® gene expression master mix from ThermoFisher Scientific (Bridgewater, N.J., USA) were used. Realtime polymerase chain reactions (qPCRs) of each treatment were performed using 5 ul of the 15 ul mixture of cDNAs pooled from three equivalent tissue replicates (i.e. mixing 5 ul of cDNA from each equivalent replicate). qPCRs were performed using a QuantStudio™ 7 Flex System (ThermoFisher Scientific, Bridgewater, N.J., USA). The RQ (relative quantitation) was calculated using the formula 2^-ΔΔCt.
The effects of red light (wavelength 640 nm, 0.3 J/cm^2) and HR on lamin B1 gene expression in the presence of TNF-α was tested using the same method as Example 1.

[1] = Example 2, treatment alone (no light, no other treatment)
[2] = treatment alone (no light, no other treatment), human full-thickness skin equivalents

Molecule: CCCCCCc1ccc(O)cc1O [hexyl resorcinol, 4-hexylresorcinol]
- change in lamin B1 gene expression (combination with red light): no substantial change

Molecule: TNF-α
- Induced LMNB1 (RQ) [1]: 1.55 RQ
- Induced LMNB1 vs Untreated Control (RQ fold changes) [1]: 0.55 RQ fold changes
- Difference of Induced LMNB1 vs Untreated Control (RQ fold changes) [2]: 0.55 RQ fold changes
- LMNB1 Induction (RQ) [2]: 1.55 RQ
